Source: patent US20100273144A1, “NOVEL USE OF GRP 94 IN VIRUS INFECTION” (priority 2008, published 2010)

Columns and labels:
IκBα = assay: Time-course analysis of IκBα levels after TNF-α treatment, Western-blot, Huh-7 cells with or without HCV replicons; format: cell-based; conditions: TNF-α 10 ng/ml
Description: Western-blot analysis—Proteins were resolved by 8% or 13.5% SDS-PAGE and transferred to nitrocellulose membranes (Amersham). The membranes were blocked overnight with 5% skimmed milk in Tris-buffered saline (TBS) [20 mM Tris-HCl (pH 7.5), 150 mM NaCl, 0.5% Tween-20] and then incubated with monoclonal antibodies against actin (1:5000), GRP94 (1:1000), Hsp90 (1:1000), TRAF2 (1:500), XIAP (1:1000), survivin (1:500), glyceraldehyde-3-phosphate dehydrogenase (GAPDH) (1:5000) and IKKα/β for 5 hours. A monoclonal anti-human actin antibody was used as a control. Horseradish-peroxidase-conjugated anti-mouse, anti-goat or anti-rabbit immunoglobulin Gs (IgGs) were used as secondary antibodies (1:5000), and bands were visualized by enhanced chemiluminescence (ECL) according to the manufacturer's instructions (Amersham).
The protein level of IκBα in control Huh-7 cells, Huh-7 cells containing replicons FK-E1 (UAA), and FK-E2(UAA) were measured by Western-blot assays with time; this is because the phosphorylation-dependent degradation of IκBs is an essential step for NF-κB activation after TNF-α treatment. […] Within 5 minutes of TNF-α treatment, IκBα proteins were not detected in the control Huh-7 cells (FIG. 1C). In Huh-7 cells containing the replicon FK-E1(UAA) that expresses NS3-5B, core and E1 proteins, the degradation of IκBα was delayed by up to 10 minutes after treatment with TNF-α (FIG. 1C).

NF-κB = NF-κB reporter assay (firefly luciferase under NF-κB response element) in 293T cells; format: cell-based; conditions: 10 ng TNF-α for 12 hours, vs mock-treated
Description: (§1) Luciferase assay—Luciferase assays were performed using a luciferase assay kit (Promega), according to the manufacturer's instructions. The luciferase activities in the cells were normalized by the protein concentrations, as determined by the Bradford assay.
The activation of NF-κB by overproduction of GRP94 was investigated by measuring the activity of a reporter gene (firefly luciferase) under the control of the […] response element (FIG. 4A). […] 293T cells were transfected with pNF-κB-Luc, which encodes the firefly luciferase gene under the control of a NF-κB response element, with control vector plasmid (pCDNA3.1) (lane 3) or with the plasmid pCDNA3.1-GRP94, which produces. GRP94 (lane 4). Control plasmid pRLCMV-Luc (Promega) was also cotransfected to normalize transfection efficiency. After incubation of the cells for 48 hours, cells were further incubated in serum-free medium for 6 hours, mock-treated (lane 1), or treated with 10 ng TNF-α for 12 hours (lane 2), before luciferase activities were measured. Three independent experiments were performed and the relative values (TNF-α-treated vs mock-treated, and GRP94-overexpressed vs mock-expressed) are shown.

IKKα/β = target: T1, IKKα/β (Homo sapiens, UniProt O14920+O15111); assay: Effect of BAY11-7082 on expression of NF-κB-related survival genes, Western-blot, control and GRP94-overexpressing cells; format: cell-based; set-up: dose or concentration left out as unconfirmed
T1 construct: were monitored using GRP94-overexpressing and control cell lines; endogenous in cells; host or cells: Huh-7 cells stably carrying pCDNA3.1 (control) or pCDNA3.1-GRP94
T1 sequence (O15111 whole entry): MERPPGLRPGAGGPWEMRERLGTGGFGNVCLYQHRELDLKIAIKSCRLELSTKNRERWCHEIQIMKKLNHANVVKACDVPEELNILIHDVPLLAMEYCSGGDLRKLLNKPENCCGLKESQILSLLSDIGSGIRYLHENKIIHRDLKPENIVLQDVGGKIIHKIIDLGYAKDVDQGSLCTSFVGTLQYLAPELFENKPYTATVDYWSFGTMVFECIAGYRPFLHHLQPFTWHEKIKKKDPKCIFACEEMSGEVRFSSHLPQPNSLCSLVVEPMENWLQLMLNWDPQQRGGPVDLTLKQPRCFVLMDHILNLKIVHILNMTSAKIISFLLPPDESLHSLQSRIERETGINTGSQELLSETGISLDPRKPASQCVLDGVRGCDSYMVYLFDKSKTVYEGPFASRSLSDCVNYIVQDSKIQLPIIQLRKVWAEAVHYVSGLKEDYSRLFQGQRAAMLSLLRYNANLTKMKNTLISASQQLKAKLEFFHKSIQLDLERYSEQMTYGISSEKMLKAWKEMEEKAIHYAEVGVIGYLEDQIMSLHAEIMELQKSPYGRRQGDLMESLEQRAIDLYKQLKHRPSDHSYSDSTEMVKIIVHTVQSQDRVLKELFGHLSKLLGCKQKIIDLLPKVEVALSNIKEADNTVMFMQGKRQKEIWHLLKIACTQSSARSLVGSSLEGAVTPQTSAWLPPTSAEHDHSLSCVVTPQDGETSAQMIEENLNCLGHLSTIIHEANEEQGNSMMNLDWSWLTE
T1 sequence (O14920 whole entry): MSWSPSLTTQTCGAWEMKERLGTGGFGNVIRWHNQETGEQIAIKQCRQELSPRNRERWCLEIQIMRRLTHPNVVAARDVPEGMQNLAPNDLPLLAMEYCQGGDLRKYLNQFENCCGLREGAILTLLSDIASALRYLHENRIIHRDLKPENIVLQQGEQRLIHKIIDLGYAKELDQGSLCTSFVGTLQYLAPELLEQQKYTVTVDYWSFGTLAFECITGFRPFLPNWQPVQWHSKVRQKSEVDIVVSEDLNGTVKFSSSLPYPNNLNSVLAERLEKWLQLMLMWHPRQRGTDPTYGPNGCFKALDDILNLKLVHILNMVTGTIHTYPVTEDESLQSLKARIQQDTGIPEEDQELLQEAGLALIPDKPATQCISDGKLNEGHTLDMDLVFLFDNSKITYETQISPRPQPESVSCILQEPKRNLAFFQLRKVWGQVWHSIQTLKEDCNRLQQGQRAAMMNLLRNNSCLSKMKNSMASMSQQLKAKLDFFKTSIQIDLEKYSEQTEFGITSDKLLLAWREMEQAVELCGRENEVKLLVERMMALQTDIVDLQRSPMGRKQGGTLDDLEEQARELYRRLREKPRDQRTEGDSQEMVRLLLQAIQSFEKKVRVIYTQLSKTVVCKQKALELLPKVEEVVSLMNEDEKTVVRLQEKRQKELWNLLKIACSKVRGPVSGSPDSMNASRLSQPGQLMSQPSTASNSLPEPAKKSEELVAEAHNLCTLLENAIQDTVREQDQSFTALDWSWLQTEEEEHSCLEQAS
T1 sequence (Q9Y6K9 whole entry partner): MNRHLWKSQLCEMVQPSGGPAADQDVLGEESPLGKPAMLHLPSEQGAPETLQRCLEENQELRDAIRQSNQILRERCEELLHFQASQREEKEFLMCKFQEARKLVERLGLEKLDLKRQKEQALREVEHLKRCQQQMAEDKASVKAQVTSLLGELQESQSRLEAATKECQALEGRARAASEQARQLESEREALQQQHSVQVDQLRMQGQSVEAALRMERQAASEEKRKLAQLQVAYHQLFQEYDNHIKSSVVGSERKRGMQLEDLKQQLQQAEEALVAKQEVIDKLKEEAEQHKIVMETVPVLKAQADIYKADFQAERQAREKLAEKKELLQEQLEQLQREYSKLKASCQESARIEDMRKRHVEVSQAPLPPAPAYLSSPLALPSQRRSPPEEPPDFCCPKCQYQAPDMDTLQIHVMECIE
Description: Western-blot analysis—Proteins were resolved by 8% or 13.5% SDS-PAGE and transferred to nitrocellulose membranes (Amersham). The membranes were blocked overnight with 5% skimmed milk in Tris-buffered saline (TBS) [20 mM Tris-HCl (pH 7.5), 150 mM NaCl, 0.5% Tween-20] and then incubated with monoclonal antibodies against actin (1:5000), GRP94 (1:1000), Hsp90 (1:1000), TRAF2 (1:500), XIAP (1:1000), survivin (1:500), glyceraldehyde-3-phosphate dehydrogenase (GAPDH) (1:5000) and IKKα/β for 5 hours. A monoclonal anti-human actin antibody was used as a control. […]
The inventors tried to determine the stage of the signaling cascade at which NF-κB is activated by GRP94. […] The effects of BAY11-7082, a specific inhibitor of IKKα/β, on the expression of NF-κB-related gene products were monitored using GRP94-overexpressing and control cell lines, and the obtained results are shown in FIG. 4B. […] Effect of abrogation of IKKα/β activity by BAY11-7082 on the expression of NF-κB-related survival genes was monitored by Western-blot analysis; lanes 2 and 4 show results with and lanes 1 and 3 show results without treatment of the drug […] for 4 hrs on control (lanes 1 and 2) and GRP94-overexpressing (lanes 3 and 4) cells.

[1] = tested on: control, GRP94-overexpressing and E2-expressing cells; assay: TRAIL-induced apoptosis monitored by cleavage of PARP (Western-blot) in control, GRP94-overexpressing and E2-expressing cells; format: cell-based; conditions: 200 ng/ml TRAIL for 2 hours
Text: The role of GRP94 in inhibition of apoptosis during HCV infection was investigated using a siRNA against GRP94 and a control siRNA, the GRP94-overexpressing, and the E2-expressing cell lines (FIG. 5). The strong apoptosis inducer TRAIL was used to mimic the physiological conditions of a virus infection that induces TRAIL expression. Cleavage of PARP, which is a substrate of activated caspase-3/7, was used to monitor the process of apoptosis. The obtained results were shown in FIG. 5, wherein control (lanes 1-4), GRP94-overexpressing (lanes 5-8), and E2-expressing (lanes 9-12) cells were mock-treated (lanes 1, 3, 5, 7, 9 and 11) or treated with 200 ng/ml TRAIL (lanes 2, 4, 6, 8, 10 and 12) for 2 hours after treatment with a control siRNA (lanes 3, 4, 7, 8, 11 and 12) or a siRNA against GRP94 (lanes 1, 2, 5, 6, 9 and 10). The levels of uncleaved PARP, GRP94, HCV E2 and actin were monitored by Western-blot analysis.

HCV-infected Huh-7 cells = assay: TRAIL-induced PARP cleavage in mock-infected and HCV (JFH 5a-Rluc)-infected Huh-7 cells; format: cell-based; conditions: TRAIL for 18 hours
Description: Huh-7 cells were transfected with a control siRNA (lanes 1, 2, 5 and 6) and a siRNA against GRP94 (lanes 3, 4, 7 and 8) and incubated for 48 hours. The siRNA-treated cells were mock-infected (lanes 1-4) or infected with HCV (JFH 5a-Rluc) (lanes 5-8) and incubated for 24 hours. After infection, the cells were mock-treated (lanes 1, 3, 5 and 7) or treated with TRAIL (lanes 2, 4, 6 and 8) for 18 hours. These cells were used to monitor protein levels (upper panel) and virus infection (lower panel). The levels of PARP, GRP94 and actin were monitored by Western-blot analysis. The HCV infectivity levels were assessed by measuring luciferase activities. Experiments were performed six times with triplicate samples each, and mean and standard deviation values of the experiments are shown as columns and lines, respectively.

HCV strain JFH 5a-Rluc = assay: HCV infectivity assessed by luciferase activity of JFH 5a-Rluc in Huh-7 cells; format: cell-based, hepatitis C virus; conditions: siRNA 48 hours before infection, TRAIL 18 hours after 24 hours infection
Description: as §1
To confirm that the anti-apoptotic activity of E2 is induced by GRP94 and NF-κB-related gene products in HCV-infected cells, the levels of GRP94, XIAP, TRAF2, FLIP and Bcl-xL were monitored using a HCV-infection system. The infectious JFH1 strain of HCV (Wakita T, Pietschmann T, Kato T, Date T, Miyamoto M, Zhao Z, Murthy K, et al. Production of infectious hepatitis C virus in tissue culture from a cloned viral genome. Nat Med 2005; 11:791-796) and a JFH1 derivative known as JFH5a-Rluc with a reporter gene (Renilla luciferase) in the NS5A of HCV (FIG. 6A) that is suitable for quantification of HCV infection (Kim C S, Jung J H, Wakita T, Yoon S K, Jang S K. Monitoring the Antiviral Effect of Alpha Interferon on Individual Cells. J. Virol. 2007; 81:8814-8820) were used. […]
Huh-7 cells were transfected with a control siRNA (lanes 1, 2, 5 and 6) and a siRNA against GRP94 (lanes 3, 4, 7 and 8) and incubated for 48 hours. […] The levels of PARP, GRP94 and actin were monitored by Western-blot analysis. The HCV infectivity levels were assessed by measuring luciferase activities. […]

## tumor necrosis factor (TNF)-α [TNF-α]
IκBα; FK-E2(UAA)-containing Huh-7 cells
  time after TNF-α treatment at which residual IκBα proteins were not detected: ≤ 5 min
IκBα; Huh-7 cells containing replicon FK-E1(UAA)
  delay of degradation of IκBα after treatment with TNF-α: up to 10 minutes
IκBα; control Huh-7 cells
  time after TNF-α treatment at which IκBα proteins were not detected: ≤ 5 min
NF-κB
  increase in NF-κB reporter activity: about 10 fold

## Cc1ccc(S(=O)(=O)/C=C/C#N)cc1 [BAY11-7082]
IKKα/β
  levels of GRP94 protein: reduced
IKKα/β; GRP94-expressing and control cells
  levels of XIAP, TRAF2, survivin, and IKKα/β: markedly reduced

B1: tumor necrosis-related apoptosis-inducing ligand (protein, UniProt P50591 1-281, looked up)
Tumor necrosis factor ligand …: MAMMEVQGGPSLGQTCVLIVIFTVLLQSLCVAVTYVYFTNELKQMQDKYSKSGIACFLKEDDSYWDPNDEESMNSPCWQVKWQLRQLVRKMILRTSEETISTVQEKQQNISPLVRERGPQRVAAHITGTRGRSNTLSSPNSKNEKALGRKINSWESSRSGHSFLSNLHLRNGELVIHEKGFYYIYSQTYFRFQEEIKENTKNDKQMVQYIYKYTSYPDPILLMKSARNSCWSKDAEYGLYSIYQGGIFELKENDRIFVSVTNEHLIDMDHEASFFGAFLVG
[1]; GRP94-overexpressing and HCV-E2-expressing cells
  cleavage of PARP: blocked
[1]; control cells, with control siRNA or GRP94 siRNA
  cleavage of PARP: observed
HCV-infected Huh-7 cells; HCV-infected Huh-7 cells
  levels of PARP cleavage: almost no reductions
HCV-infected Huh-7 cells; mock-infected Huh-7 cells
  cleavage of PARP: observed
HCV strain JFH 5a-Rluc
  reduction of infectivity of HCV: about 20%
